Structures can show the parent of a compound that is named as a salt.
Assays:
Assay in all cases: MIC by broth microdilution (antibacterial and synergistic activity)
Format in all cases: cell-based
[1] = test system: E. cloacae clinical isolate (strain 5, P99); settings: Enterobacter cloacae; strain 5 (P99); compound alone, no antibiotic; read-out: Antibacterial activity, MIC, inhibitor Alone
Experimental: (§1) Compounds of the present invention alone, avibactam (AVI) alone, relebactam (REL) alone, meropenem (MER) alone, imipenem (IMI) alone, and as a combination of compounds of the present invention, or avibactam or relebactam with test antibiotic (meropenem or imipenem) was tested for antimicrobial activity by determining minimum inhibitory concentration (MIC, mg/L) using the broth microdilution method according to the guidelines of the Clinical Laboratories and Standards Institute (“Methods for Dilution Antimicrobial Susceptibility Tests for Bacterial that Grow Aerobically”, Approved standard, 7th ed., Clinical and Laboratories Standards Institute (CLSI) Document M7-A8, Wayne, Pa., USA, 2009). Meropenem or imipenem as a test antibiotic compound was dissolved in DMSO, and then diluted in microbial growth medium (Mueller-Hinton Broth II, cation adjusted) resulting in a final concentration range of 0.031-64 mg/L in serial two-fold dilution. In all cases the final DMSO concentration was less than 0.5%. Bacteria were added to 96-well microtitre plates containing the serial two-fold dilutions of the compounds; the final cell density was approximately 5×10^5 colony forming units/mL (CFU/mL). Plates were incubated at 37° C. for 18-24 hours and read visually. The MIC, i.e. the lowest concentration of the test compound that inhibited visible growth of the bacteria, was recorded. The same assay conditions were used when the compounds of present invention alone, avibactam or relebactam alone (as a control), and as a combination of the present invention each compound, or avibactam or relebactam with test meropenem or imipenem antibiotic compound was tested for minimum inhibitory concentration (MIC, mg/L). While test meropenem or imipenem was serially diluted as described above, a constant concentration of avibactam, or relebactam or the present invention each compound of 4 mg/L was used.
(§2) Bacterial strains that were used to evaluate the antimicrobial activity using the MIC determination included but were not limited to E. coli clinical isolate (strain 1, TEM-1), E. coli 8739 (strain 2, CTX-M15), K. pneumoniae clinical isolate (strain 3, SHV-1), K. pneumoniae 700603 (strain 4, KPC-3, TEM-1), E. cloacae clinical isolate (strain 5, P99), E. cloacae 700323 (strain 6, AmpC), A. baumannii clinical isolate (strain 7, OXA-23, OXA-40), A. baumannii 19606 (strain 8, OXA-24), P. aeruginosa clinical isolate (strain 9, KPC-2), P. aeruginosa 9027 (strain 10, AmpC).

[2] = test system: P. aeruginosa 9027 (strain 10, AmpC); settings: Pseudomonas aeruginosa; strain 10 (AmpC); compound alone, no antibiotic; read-out: Antibacterial activity, MIC, inhibitor Alone
Experimental: as §1, §2

[3] = test system: A. baumannii clinical isolate (strain 7, OXA-23, OXA-40); settings: Acinetobacter baumannii; strain 7 (OXA-23/40); compound alone, no antibiotic; read-out: Antibacterial activity, MIC, inhibitor Alone
Experimental: as §1, §2

[4] = test system: E. cloacae 700323 (strain 6, AmpC); settings: Enterobacter cloacae; strain 6 (AmpC); compound alone, no antibiotic; read-out: Antibacterial activity, MIC, inhibitor Alone
Experimental: as §1, §2

[5] = test system: E. coli 8739 (strain 2, CTX-M15); settings: Escherichia coli, read-out: Antibacterial activity, MIC, inhibitor Alone
Experimental: as §1, §2

[6] = test system: K. pneumoniae 700603 (strain 4, KPC-3, TEM-1); settings: Klebsiella pneumoniae; strain 4 (KPC-3, TEM-1); compound alone, no antibiotic; read-out: Antibacterial activity, MIC, inhibitor Alone
Experimental: as §1, §2

[7] = test system: E. coli clinical isolate (strain 1, TEM-1); settings: Escherichia coli; strain 1 (TEM-1); compound alone, no antibiotic; read-out: Antibacterial activity, MIC, inhibitor Alone
Experimental: as §1, §2

[8] = test system: K. pneumoniae clinical isolate (strain 3, SHV-1); settings: Klebsiella pneumoniae; strain 3 (SHV-1); compound alone, no antibiotic; read-out: Antibacterial activity, MIC, inhibitor Alone
Experimental: as §1, §2

[9] = test system: P. aeruginosa clinical isolate (strain 9, KPC-2); settings: Pseudomonas aeruginosa; strain 9 (KPC-2); compound alone, no antibiotic; read-out: Antibacterial activity, MIC, inhibitor Alone
Experimental: as §1, §2

[10] = test system: A. baumannii 19606 (strain 8, OXA-24); settings: Acinetobacter baumannii, read-out: Antibacterial activity, MIC, inhibitor Alone
Experimental: as §1, §2

Measured: MIC

N=C(NS(=O)(=O)c1ccc(C(F)(F)F)cn1)[C@@H]1CC[C@@H]2CN1C(=O)N2OS(=O)(=O)O [Ex. 20, (2S,5R)-7-oxo-2-(N-((5-(trifluoromethyl)pyridin-2-yl)sulfonyl)carbamimidoyl)-1,6-diazabicyclo[3.2.1]octan-6-yl hydrogen sulfate]
> 64 µg/mL: all assays above

CS(=O)(=O)NC(=N)[C@@H]1CC[C@@H]2CN1C(=O)N2OS(=O)(=O)[O-].[Na+] [Ex. 5, Sodium (2S,5R)-2-(N-(methylsulfonyl)carbamimidoyl)-7-oxo-1,6-diazabicyclo[3.2.1]octan-6-yl sulfate]
> 64 µg/mL: all assays above

COc1ccc(S(=O)(=O)NC(=N)[C@@H]2CC[C@@H]3CN2C(=O)N3OS(=O)(=O)O)cn1 [Ex. 21, (2S,5R)-2-(N-((6-methoxypyridin-3-yl)sulfonyl)carbamimidoyl)-7-oxo-1,6-diazabicyclo[3.2.1]octan-6-yl hydrogen sulfate]
> 64 µg/mL: all assays above

NC(=O)[C@@H]1CC[C@@H]2CN1C(=O)N2OS(=O)(=O)O [AVI, avibactam, reference compound]
> 64 µg/mL: all assays above

N=C(NS(N)(=O)=O)[C@@H]1CC[C@@H]2CN1C(=O)N2OS(=O)(=O)O [Ex. 16, (2S,5R)-7-oxo-2-(N-Sulfamoylcarbamimidoyl)-1,6-diazabicyclo[3.2.1]octan-6-yl hydrogen sulfate]
> 64 µg/mL: all assays above

N=C(NS(=O)(=O)c1cccnc1)[C@@H]1CC[C@@H]2CN1C(=O)N2OS(=O)(=O)[O-].[Na+] [Ex. 13, Sodium (2S,5R)-7-oxo-2-(N-(pyridin-3-ylsulfonyl)carbamimidoyl)-1,6-diazabicyclo[3.2.1]octan-6-yl sulfate]
> 64 µg/mL: all assays above

CCNS(=O)(=O)NC(=N)[C@@H]1CC[C@@H]2CN1C(=O)N2OS(=O)(=O)O [Ex. 18, (2S,5R)-2-(N—(N-Ethylsulfamoyl)carbamimidoyl)-7-oxo-1,6-diazabicyclo[3.2.1]octan-6-yl hydrogen sulfate]
> 64 µg/mL: all assays above

Cn1ccnc1S(=O)(=O)NC(=N)[C@@H]1CC[C@@H]2CN1C(=O)N2OS(=O)(=O)O [Ex. 19, (2S,5R)-2-(N-((1-methyl-1H-imidazol-2-yl)sulfonyl)carbamimidoyl)-7-oxo-1,6-diazabicyclo[3.2.1]octan-6-yl hydrogen sulfate]
> 64 µg/mL: all assays above

O=C(NC1CCNCC1)[C@@H]1CC[C@@H]2CN1C(=O)N2OS(=O)(=O)O [REL, relebactam, reference compound]
> 64 µg/mL: all assays above

Reference: patent publication US12410166B2, “Sulfonylamidine substituted compounds and their use as beta-lactamase inhibitors” (NINGXIA ACADEMY OF AGRICULTURE AND FORESTRY SCIENCES, priority 2021, dated 2025)
